According to ChEMBL document CHEMBL1201862, “PubChem BioAssay data set” (2004):
The source made the active and inactive calls.

Legend:
[1] = biological target: T1, High affinity choline transporter 1 (Homo sapiens, UniProt Q9GZV3); assay: human choline transporter blockers, potency – cell-based, 5-point CRC, membrane potential dye, dose response (AID 504840); type: functional
T1 sequence (Q9GZV3 whole entry): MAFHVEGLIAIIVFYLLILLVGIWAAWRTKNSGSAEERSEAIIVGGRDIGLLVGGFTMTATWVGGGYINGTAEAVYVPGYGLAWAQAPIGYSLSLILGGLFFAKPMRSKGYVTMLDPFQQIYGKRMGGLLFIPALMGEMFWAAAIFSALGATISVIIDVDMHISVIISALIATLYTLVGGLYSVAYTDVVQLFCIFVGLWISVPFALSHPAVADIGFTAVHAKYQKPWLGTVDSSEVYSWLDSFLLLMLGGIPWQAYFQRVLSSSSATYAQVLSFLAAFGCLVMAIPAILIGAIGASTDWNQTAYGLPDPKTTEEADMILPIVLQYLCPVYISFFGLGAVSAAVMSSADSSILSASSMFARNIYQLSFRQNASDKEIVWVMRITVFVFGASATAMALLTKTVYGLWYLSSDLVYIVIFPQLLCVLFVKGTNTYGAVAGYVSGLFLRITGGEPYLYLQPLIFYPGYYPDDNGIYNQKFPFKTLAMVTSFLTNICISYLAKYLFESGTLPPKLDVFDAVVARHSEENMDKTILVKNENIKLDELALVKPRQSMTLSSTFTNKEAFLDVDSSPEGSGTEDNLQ

CAAX prenyl protease 2 = biological target: T2, CAAX prenyl protease 2 (Saccharomyces cerevisiae S288c, UniProt Q03530); type: biochemical
T2 sequence (Q03530 whole entry): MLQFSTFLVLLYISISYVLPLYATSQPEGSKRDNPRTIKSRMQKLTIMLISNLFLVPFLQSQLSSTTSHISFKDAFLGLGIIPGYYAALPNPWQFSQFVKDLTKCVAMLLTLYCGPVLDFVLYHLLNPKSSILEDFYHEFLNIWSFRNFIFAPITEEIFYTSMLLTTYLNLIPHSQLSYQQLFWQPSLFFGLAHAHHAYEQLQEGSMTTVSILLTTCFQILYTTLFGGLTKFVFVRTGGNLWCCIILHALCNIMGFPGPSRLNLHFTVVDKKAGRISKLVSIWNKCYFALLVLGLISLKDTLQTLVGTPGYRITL

Bcl-2-related protein A1 = biological target: T3, Bcl-2-related protein A1 (Mus musculus, UniProt Q07440); type: functional;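 further: confirmatory dose–response counterscreen on Bfl-1, used to check hits from a UBC13 polyubiquitin inhibitor campaign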
T3 sequence (Q07440 whole entry): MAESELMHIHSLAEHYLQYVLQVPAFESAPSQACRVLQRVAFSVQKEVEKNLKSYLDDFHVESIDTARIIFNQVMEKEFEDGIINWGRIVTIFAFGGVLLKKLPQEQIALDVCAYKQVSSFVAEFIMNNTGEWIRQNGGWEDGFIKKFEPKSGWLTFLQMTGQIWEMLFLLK

CAAX prenyl protease 1 = CAAX prenyl protease 1 (Saccharomyces cerevisiae S288c, UniProt P47154); assay: yeast CAAX protease Ste24 inhibition – biochemical, S. cerevisiae, plate reader, cherry-pick, dose response (AID 488815)
[2] = biological target: T4, Ubiquitin-conjugating enzyme E2 N (Homo sapiens, UniProt P61088); type: functional
T4 sequence (P61088 whole entry): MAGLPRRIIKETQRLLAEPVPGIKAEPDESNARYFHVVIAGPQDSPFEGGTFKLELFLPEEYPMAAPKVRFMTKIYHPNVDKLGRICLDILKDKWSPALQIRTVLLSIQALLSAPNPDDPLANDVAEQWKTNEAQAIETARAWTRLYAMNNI

[3] = biological target: T4, Ubiquitin-conjugating enzyme E2 N; type: functional; remark: listed apart in the source
[4] = biological target: T1, High affinity choline transporter 1; assay: human choline transporter blockers, potency – cell-based, 10-point CRC, membrane potential dye, dose response (AID 588401); type: functional;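 further: membrane potential dye fluorescence of choline-evoked depolarization via CHT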

CAAX prenyl protease 1, sequence (P47154 whole entry): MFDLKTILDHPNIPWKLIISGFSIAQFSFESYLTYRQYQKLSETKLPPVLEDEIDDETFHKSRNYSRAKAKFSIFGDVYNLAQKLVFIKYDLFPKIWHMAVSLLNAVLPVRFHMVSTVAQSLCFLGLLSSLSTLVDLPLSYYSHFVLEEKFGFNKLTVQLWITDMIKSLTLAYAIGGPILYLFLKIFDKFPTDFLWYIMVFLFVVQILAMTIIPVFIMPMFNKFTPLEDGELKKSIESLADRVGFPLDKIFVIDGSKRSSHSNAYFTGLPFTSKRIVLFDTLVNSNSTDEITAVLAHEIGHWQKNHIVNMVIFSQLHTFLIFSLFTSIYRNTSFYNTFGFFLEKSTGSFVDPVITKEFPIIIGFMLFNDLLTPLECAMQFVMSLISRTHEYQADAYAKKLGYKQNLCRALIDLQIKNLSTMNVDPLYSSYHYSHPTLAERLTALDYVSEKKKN

With `NCCCn1c(C(=O)c2cc(Cl)c(N)c(Cl)c2)c2ccc(C(F)(F)F)cc2[n+]1[O-]` the IC50 [1] was 1.39 µM (active), the AC50 (CAAX prenyl protease 2) was 35.5 µM (active) and the IC50 (Bcl-2-related protein A1) was > 20 µM (inactive). For the same molecule, the AC50 (CAAX prenyl protease 1) was > 100 µM (inactive), the IC50 [2] was 4.28 µM (active) and the IC50 [3] was 4.21 µM (active). For the same molecule, the IC50 [4] was 1.08 µM (active).
